Source: patent publication US11534404B2, “Multilayer beads for pharmaceutical use” (Sucampo AG, priority 2016, dated 2022)

What was measured:
Assay type in all cases: physicochemical
[1] = Lubiprostone-excipient contact stability study (Example 1A); details: excipient:lubiprostone approx 50:50; 55° C. 10 days; HPLC
Procedure: Test samples were prepared for the study in approximately 50:50 proportion using various excipients and lubiprostone drug. These prepared mixtures were then placed on accelerated stress stability conditions at 55° C. for 10 days. After 10 days, these samples were analyzed by a suitable HPLC method to determine assay (the amount of remaining Lubiprostone) and impurities generated due to degradation of lubiprostone.

[2] = Lubiprostone-excipient contact stability study, solid solution (Example 1B); details: for % of the initial: 55° C. 10 d, remaining lubiprostone by HPLC
Procedure: Additional test samples were prepared for the study by admixing various excipients and lubiprostone drug in ratios of about 50:50 and about 99:1. Solid solutions were prepared by mixing lubiprostone/MeCN and Excipient/MeCN, combining these mixtures and then removing the solvent by evaporation. The prepared mixtures were then placed under accelerated stress stability conditions at 55° C. for 10 days. After 10 days, these samples were analyzed by HPLC method to determine the amount of remaining lubiprostone and impurities generated as a result of the degradation of lubiprostone.

[3] = Lubiprostone-excipient contact stability study, mechanical mixing of powder (Example 1C); details: for % of the initial: 55° C. 10 d, remaining lubiprostone by HPLC
Procedure: Test samples were prepared by direct (mechanical) mixing of various excipients and lubiprostone drug in approximately 50:50 and 99:1 ratios. The mechanical mixing of lubiprostone and excipients was conduct by admixing them using a conventional mortar. The prepared mixtures were then placed under accelerated stress stability conditions at 55° C. for 10 days. After 10 days, these samples were analyzed by HPLC to determine the amount of remaining lubiprostone and impurities generated as a result of the degradation of lubiprostone.

[4] = Mechanical mixing of powder 50:50
[5] = Mechanical mixing of powder 99:1

Assay (% of initial) [1]: 42.3% | Total Impurities [1]: 59.0% | 55° C. 10 d Impurities ([2]; Solid solution 50:50): 33.5 | % of the initial ([2]; Solid solution 50:50): 44.4% | 55° C. 10 d Impurities ([2]; Solid solution 99:1): 35.5 | % of the initial ([2]; Solid solution 99:1): 44.4% | 55° C. 10 d Impurities [3, 4]: 24.5 | % of the initial [3, 4]: 55.6% | 55° C. 10 d Impurities [3, 5]: 24.5 | % of the initial [3, 5]: 55.6%
Structure (SMILES): CCCCC(F)(F)[C@@]1(O)CC[C@H]2[C@@H](CC(=O)[C@@H]2CCCCCCC(=O)O)O1 [Lubiprostone, (−)-7-[(2R,4aR,5R,7aR)-2-(1,1-difluoropentyl)-2-hydroxy-6-oxooctahydrocyclopenta[b]pyran-5-yl]heptanoic acid]
